Measurements published in ChEMBL document CHEMBL1201862, “PubChem BioAssay data set” (2004).
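Protocol summary: plate cells (96-well), add compound at 5 concentrations, incubate 48 h, interpolate endpoints linearly. At the GI50, growth is halved.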 Activity calls are given as the source filed them. No stated cut-off is given here; in the data, active = GI50 up to about 1.1 µM and inactive = higher.

Key:
Test in all cases: DTP human tumour cell line panel, 48 h
[1] = system: A498
[2] = system: ACHN
[3] = system: COLO 205
[4] = system: DU-145
[5] = system: HCT-15
[6] = system: HOP-92
[7] = system: Hs-578T
[8] = system: KM12
[9] = system: LOX IMVI
[10] = system: MCF7
[11] = system: MDA-MB-231
[12] = system: MOLT-4
[13] = system: RXF 393
[14] = system: SK-MEL-28
[15] = system: SK-MEL-5
[16] = system: SNB-19
[17] = system: SNB-75
[18] = system: T47D
[19] = system: TK-10
[20] = system: U-251

COc1ccc2c(c1)[nH]c1c3ccc(OC)cc3oc(=O)c21
GI50 [1]: > 100 µM (inactive) | GI50 [2]: > 100 µM (inactive) | GI50 [3]: > 100 µM (inactive) | GI50 [4]: > 100 µM (inactive) | GI50 [5]: 5.27 µM | GI50 [6]: > 100 µM (inactive) | GI50 [7]: 55.2 µM (inactive) | GI50 [8]: 19.8 µM (inactive) | GI50 [9]: > 100 µM (inactive) | GI50 [10]: 5.73 µM (inactive) | GI50 [11]: 92 µM (inactive) | GI50 [12]: > 100 µM (inactive) | GI50 [13]: > 100 µM (inactive) | GI50 [14]: > 100 µM (inactive) | GI50 [15]: > 100 µM (inactive) | GI50 [16]: > 100 µM (inactive) | GI50 [17]: 25.1 µM (inactive) | GI50 [18]: > 100 µM (inactive) | GI50 [19]: > 100 µM (inactive) | GI50 [20]: > 100 µM (inactive)

COc1ccc2c(c1)CCN1CCCc3ccc(OC)cc3C21 (stereo not given)
GI50 [1]: 84.5 µM (inactive) | GI50 [2]: > 100 µM (inactive) | GI50 [3]: 44.4 µM (inactive) | GI50 [4]: > 100 µM (inactive) | GI50 [5]: 54.8 µM | GI50 [6]: 63.8 µM (inactive) | GI50 [7]: 48.1 µM (inactive) | GI50 [8]: 60.4 µM (inactive) | GI50 [9]: 41.2 µM (inactive) | GI50 [10]: 31.3 µM (inactive) | GI50 [11]: 49.8 µM (inactive) | GI50 [12]: 37.1 µM (inactive) | GI50 [13]: 41.4 µM (inactive) | GI50 [14]: > 100 µM (inactive) | GI50 [15]: 39.6 µM (inactive) | GI50 [16]: > 100 µM (inactive) | GI50 [17]: 16.4 µM (inactive) | GI50 [18]: 50.6 µM (inactive) | GI50 [19]: > 100 µM (inactive) | GI50 [20]: 58.9 µM (inactive)

Cc1nc2c(-c3ccccc3)[nH]c(C)c2c(=O)o1
GI50 [1]: 22.1 µM (inactive) | GI50 [2]: 43.8 µM (inactive) | GI50 [3]: 58.3 µM (inactive) | GI50 [4]: 76.2 µM (inactive) | GI50 [5]: 30.8 µM | GI50 [6]: > 100 µM (inactive) | GI50 [7]: > 100 µM (inactive) | GI50 [8]: > 100 µM (inactive) | GI50 [9]: 42.5 µM (inactive) | GI50 [10]: 1.39 µM (inactive) | GI50 [11]: 31.2 µM (inactive) | GI50 [12]: 52.5 µM (inactive) | GI50 [13]: 35.9 µM (inactive) | GI50 [14]: > 100 µM (inactive) | GI50 [15]: 13.1 µM (inactive) | GI50 [16]: > 100 µM (inactive) | GI50 [17]: 23.9 µM (inactive) | GI50 [18]: 44.2 µM (inactive) | GI50 [19]: > 100 µM (inactive) | GI50 [20]: 34.9 µM (inactive)

C=C(CCC(=O)N(CCc1c[nH]c2ccccc12)C(=O)c1ccccc1CSCC)C(=O)OC
GI50 [1]: 49.2 µM (inactive) | GI50 [2]: 31.9 µM (inactive) | GI50 [3]: 20.9 µM (inactive) | GI50 [4]: > 95.5 µM (inactive) | GI50 [5]: 26.5 µM | GI50 [6]: 40.6 µM (inactive) | GI50 [7]: 44.5 µM (inactive) | GI50 [8]: 8.2 µM (inactive) | GI50 [9]: 29.2 µM (inactive) | GI50 [10]: 19.9 µM (inactive) | GI50 [11]: 30.1 µM (inactive) | GI50 [12]: 4.02 µM (inactive) | GI50 [13]: > 47.5 µM (inactive) | GI50 [14]: > 100 µM (inactive) | GI50 [15]: 23.4 µM (inactive) | GI50 [16]: 56.5 µM (inactive) | GI50 [17]: > 83.8 µM (inactive) | GI50 [18]: 21.9 µM (inactive) | GI50 [19]: 66.5 µM (inactive) | GI50 [20]: 10.3 µM (inactive)

CN(C)/C=N/S(=O)(=O)c1nn2c(C=O)c(-c3ccc(-c4ccccc4)cc3)nc2s1
GI50 [1]: 21.3 µM (inactive) | GI50 [2]: 1.57 µM (inactive) | GI50 [3]: 2.56 µM (inactive) | GI50 [4]: 2.4 µM (inactive) | GI50 [5]: 2.26 µM | GI50 [6]: 2.65 µM (inactive) | GI50 [7]: 3.09 µM (inactive) | GI50 [8]: 2.48 µM (inactive) | GI50 [9]: 0.753 µM (active) | GI50 [10]: 0.838 µM (active) | GI50 [11]: 2.99 µM (inactive) | GI50 [12]: 0.283 µM (active) | GI50 [13]: 1.71 µM (inactive) | GI50 [14]: 1.98 µM (inactive) | GI50 [15]: 1.61 µM (inactive) | GI50 [16]: 11.9 µM (inactive) | GI50 [17]: 4.12 µM (inactive) | GI50 [18]: 1.95 µM (inactive) | GI50 [19]: 1.83 µM (inactive) | GI50 [20]: 2.01 µM (inactive)

CCCCCCOc1ccc(C(=O)NO)cc1
GI50 [1]: 13 µM (inactive) | GI50 [2]: 5.07 µM (inactive) | GI50 [3]: 9.51 µM (inactive) | GI50 [4]: 8.05 µM (inactive) | GI50 [5]: 1.61 µM | GI50 [6]: 13.9 µM (inactive) | GI50 [7]: 19.6 µM (inactive) | GI50 [8]: 11.9 µM (inactive) | GI50 [9]: 2.17 µM (inactive) | GI50 [10]: 25.8 µM (inactive) | GI50 [11]: 11 µM (inactive) | GI50 [12]: 1.07 µM (active) | GI50 [13]: 11.3 µM (inactive) | GI50 [14]: 16 µM (inactive) | GI50 [15]: 15.7 µM (inactive) | GI50 [16]: 17.8 µM (inactive) | GI50 [17]: 13.4 µM (inactive) | GI50 [18]: 5.83 µM (inactive) | GI50 [19]: 17.1 µM (inactive) | GI50 [20]: 10.4 µM (inactive)
